Data from ChEMBL document CHEMBL1212695, “An allosteric potentiator of M4 mAChR modulates hippocampal synaptic transmission” (Nat Chem Biol, 2008).
One block for each compound: values may come before it. Active and inactive are the calls of the source. The calls are words filed in the database; no cut-off is given here.

Tests used:
[1] = molecular target: T1, Muscarinic acetylcholine receptor M4 (Rattus norvegicus, UniProt P08485); assay: (§1) Allosteric activation of rat recombinant muscarinic M4 receptor expressed in CHO cells assessed as potentiation of 10 uM acetylcholine-induced calcium mobilization after 1 hr by fluorescence assay; assay type: functional, cell-based
T1 sequence (P08485 whole entry): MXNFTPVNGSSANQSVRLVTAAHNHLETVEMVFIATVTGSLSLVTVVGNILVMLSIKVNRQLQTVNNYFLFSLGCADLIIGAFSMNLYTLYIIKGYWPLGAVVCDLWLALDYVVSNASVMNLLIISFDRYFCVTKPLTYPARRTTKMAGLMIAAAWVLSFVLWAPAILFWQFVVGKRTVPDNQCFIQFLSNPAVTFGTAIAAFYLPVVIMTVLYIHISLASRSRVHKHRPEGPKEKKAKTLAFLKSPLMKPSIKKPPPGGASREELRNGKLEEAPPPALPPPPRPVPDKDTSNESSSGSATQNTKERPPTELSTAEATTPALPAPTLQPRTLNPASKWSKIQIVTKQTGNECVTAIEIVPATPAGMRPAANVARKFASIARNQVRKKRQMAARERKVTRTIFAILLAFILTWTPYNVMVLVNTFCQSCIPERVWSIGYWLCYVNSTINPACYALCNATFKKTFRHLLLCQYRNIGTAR

[2] = molecular target: T2, Muscarinic acetylcholine receptor M4 (Rattus norvegicus) (UniProt P08485); assay: Allosteric activation of rat recombinant muscarinic M4 receptor expressed in CHO cells assessed as […] in acetylcholine EC50 for induction of calcium mobilization at 10 uM after 1 hr by fluorescence assay; assay type: functional, cell-based
T2 sequence (whole entry): T1 sequence (P08485 whole entry)

[3] = molecular target: T1, Muscarinic acetylcholine receptor M4; assay: Allosteric activation of rat recombinant muscarinic M4 receptor expressed in CHO cells assessed as potentiation of 15 nM acetylcholine-induced calcium mobilization after 1 hr by fluorescence assay; assay type: functional, cell-based
[4] = molecular target: T3, Muscarinic acetylcholine receptor M5 (Rattus norvegicus) (UniProt P08911); assay: Allosteric activation of rat recombinant muscarinic M5 receptor expressed in CHO cells assessed as potentiation of acetylcholine-induced calcium mobilization at 10 uM after 1 hr by fluorescence assay; assay type: functional, cell-based
T3 sequence (whole entry): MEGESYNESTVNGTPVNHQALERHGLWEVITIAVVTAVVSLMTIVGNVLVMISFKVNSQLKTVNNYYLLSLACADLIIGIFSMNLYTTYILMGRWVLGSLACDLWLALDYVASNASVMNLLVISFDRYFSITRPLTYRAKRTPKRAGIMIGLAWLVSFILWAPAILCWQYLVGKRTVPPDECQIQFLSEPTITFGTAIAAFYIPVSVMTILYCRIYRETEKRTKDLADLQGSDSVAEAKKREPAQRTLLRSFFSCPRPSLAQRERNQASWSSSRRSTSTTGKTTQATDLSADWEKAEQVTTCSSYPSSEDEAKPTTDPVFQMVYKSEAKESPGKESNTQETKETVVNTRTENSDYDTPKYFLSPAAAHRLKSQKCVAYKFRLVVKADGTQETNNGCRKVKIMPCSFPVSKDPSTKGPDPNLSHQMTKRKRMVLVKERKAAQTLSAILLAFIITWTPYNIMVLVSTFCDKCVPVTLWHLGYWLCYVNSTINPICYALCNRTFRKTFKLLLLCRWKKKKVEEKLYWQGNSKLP

[5] = molecular target: T4, Muscarinic acetylcholine receptor M2 (Rattus norvegicus) (UniProt P10980); assay: Allosteric activation of rat recombinant muscarinic M2 receptor expressed in CHO cells assessed as potentiation of acetylcholine-induced calcium mobilization at 10 uM after 1 hr by fluorescence assay; assay type: functional, cell-based
T4 sequence (whole entry): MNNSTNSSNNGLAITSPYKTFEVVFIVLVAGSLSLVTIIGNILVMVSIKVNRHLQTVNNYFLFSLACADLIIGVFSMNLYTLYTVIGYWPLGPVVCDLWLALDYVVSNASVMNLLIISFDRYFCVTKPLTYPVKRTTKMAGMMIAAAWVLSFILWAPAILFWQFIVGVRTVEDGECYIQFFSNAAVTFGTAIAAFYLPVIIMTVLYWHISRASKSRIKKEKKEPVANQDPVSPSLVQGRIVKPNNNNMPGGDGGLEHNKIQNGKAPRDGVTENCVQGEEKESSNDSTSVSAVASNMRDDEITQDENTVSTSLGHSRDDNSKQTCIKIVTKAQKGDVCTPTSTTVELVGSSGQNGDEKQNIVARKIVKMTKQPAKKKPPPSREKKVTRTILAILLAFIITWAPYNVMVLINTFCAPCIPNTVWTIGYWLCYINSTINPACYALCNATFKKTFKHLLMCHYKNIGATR

[6] = molecular target: Muscarinic acetylcholine receptor M3 (Rattus norvegicus) (UniProt P08483); assay: Allosteric activation of rat recombinant muscarinic M3 receptor expressed in CHO cells assessed as potentiation of acetylcholine-induced calcium mobilization at 10 uM after 1 hr by fluorescence assay; assay type: functional, cell-based
[7] = molecular target: T5, Muscarinic acetylcholine receptor M1 (Rattus norvegicus) (UniProt P08482); assay: Allosteric activation of rat recombinant muscarinic M1 receptor expressed in CHO cells assessed as potentiation of acetylcholine-induced calcium mobilization at 10 uM after 1 hr by fluorescence assay; assay type: functional, cell-based
T5 sequence (whole entry): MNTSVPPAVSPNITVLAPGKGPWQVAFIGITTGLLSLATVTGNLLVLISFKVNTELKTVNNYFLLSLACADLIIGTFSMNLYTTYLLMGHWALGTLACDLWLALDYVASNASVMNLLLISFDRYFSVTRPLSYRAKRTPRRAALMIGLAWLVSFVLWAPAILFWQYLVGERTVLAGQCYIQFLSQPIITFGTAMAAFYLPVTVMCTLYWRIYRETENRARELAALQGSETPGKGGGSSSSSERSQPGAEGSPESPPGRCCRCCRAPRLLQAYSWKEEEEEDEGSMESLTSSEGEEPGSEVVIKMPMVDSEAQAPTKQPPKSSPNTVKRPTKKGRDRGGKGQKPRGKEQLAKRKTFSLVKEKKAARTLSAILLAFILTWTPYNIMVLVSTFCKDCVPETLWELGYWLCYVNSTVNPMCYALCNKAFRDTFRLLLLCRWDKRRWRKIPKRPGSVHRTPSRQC

[8] = molecular target: T2, Muscarinic acetylcholine receptor M4 (Rattus norvegicus); assay: as §1; assay type: functional, cell-based
[9] = molecular target: T2, Muscarinic acetylcholine receptor M4 (Rattus norvegicus); assay: Agonist activity at muscarinic M4 receptor in Sprague-Dawley rat hippocampal CA1 pyramidal neuron assessed as reduction in excitatory postsynaptic current at 5 uM by whole-cell electrophysiology in presence of carbachol relative to control; assay type: functional, tissue-based; conditions: Hippocampus
[10] = molecular target: T2, Muscarinic acetylcholine receptor M4 (Rattus norvegicus); assay: Allosteric activation of rat recombinant muscarinic M4 receptor expressed in CHO cells assessed as induction of calcium mobilization after 1 hr by fluorescence assay; assay type: functional, cell-based

Muscarinic acetylcholine receptor M3 (Rattus norvegicus), sequence (P08483 whole entry, looked up): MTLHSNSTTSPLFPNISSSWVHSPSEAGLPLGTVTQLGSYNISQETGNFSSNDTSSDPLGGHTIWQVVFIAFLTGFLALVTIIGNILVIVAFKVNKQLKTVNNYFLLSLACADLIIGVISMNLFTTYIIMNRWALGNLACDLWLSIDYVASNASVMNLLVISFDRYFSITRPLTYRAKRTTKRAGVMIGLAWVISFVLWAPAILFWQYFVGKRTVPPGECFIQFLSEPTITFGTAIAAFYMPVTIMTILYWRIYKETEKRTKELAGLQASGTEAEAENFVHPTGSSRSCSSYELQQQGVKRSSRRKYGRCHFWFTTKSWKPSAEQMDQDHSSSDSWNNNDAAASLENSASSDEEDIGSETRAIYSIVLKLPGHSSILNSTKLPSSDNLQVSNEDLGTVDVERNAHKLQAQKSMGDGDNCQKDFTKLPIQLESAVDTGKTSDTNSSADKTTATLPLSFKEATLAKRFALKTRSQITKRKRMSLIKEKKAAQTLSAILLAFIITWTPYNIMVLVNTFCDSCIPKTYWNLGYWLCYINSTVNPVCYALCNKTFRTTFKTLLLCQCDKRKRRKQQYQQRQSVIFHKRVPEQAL

- EC50 [1]: 0.715 µM
- fold change (FC) [2]: 37
SMILES: Cc1cc(C)c2c(N)c(C(=O)NCc3ccc(C(F)(F)F)cc3)sc2n1

- EC50 [3]: 6 µM
- Activity [4]: inactive
- Activity [5]: inactive
- Activity [6]: inactive
- Activity [7]: inactive
SMILES: Cc1cc(C)c2c(N)c(C(=O)NC(C)C)sc2n1

- Activity [8]: Active
SMILES: Cc1cc(C)c2c(N)c(C(=O)NCC(C)C)sc2n1

- Activity [4]: inactive
- Activity [5]: inactive
- Activity [6]: inactive
- fold change (FC) [2]: 21
- Activity [7]: inactive
SMILES: Cc1cc(C)c2c(N)c(C(=O)NCc3ccco3)sc2n1

- EC50 [1]: 0.3 µM
- fold change (FC) [2]: 30
SMILES: Cc1cc(C)c2c(N)c(C(=O)NCc3ccc(F)cc3)sc2n1

- inhibition [9]: 61.6%
- Activity [8]: inactive
SMILES: Cc1cc(C)c2c(N)c(C(=O)N[C@@H](C)c3ccccc3)sc2n1

- Activity [8]: Active
SMILES: Cc1cc(C)c2c(N)c(C(=O)NC(C)(C)C)sc2n1

- EC50 [3]: 1.3 µM
- Activity [4]: inactive
- Activity [5]: inactive
- Activity [6]: inactive
- Activity [7]: inactive
SMILES: Cc1cc(C)c2c(N)c(C(=O)NCc3ccccc3)sc2n1

- Activity [8]: Active
SMILES: CCCNC(=O)c1sc2nc(C)cc(C)c2c1N

- Activity [8]: Active
SMILES: Cc1cc(C)c2c(N)c(C(=O)NC3CC3)sc2n1

- Activity [8]: Active
SMILES: Cc1cc(C)c2c(N)c(C(=O)N[C@H](C)c3ccccc3)sc2n1

- Activity [8]: Active
SMILES: CCNC(=O)c1sc2nc(C)cc(C)c2c1N

- EC20 [10]: 0.015 µM
- EC100 [10]: 10 µM
SMILES: CC(=O)OCC[N+](C)(C)C
